Among the data in PubChem BioAssay AID266 (DTP/NCI, 2004) are T/C values, retold here.

For the assay, the system named is Nude mice, LX-1 lung xenograft intrarenal, tumor weight T/C. As to the kind of experiment: NCI In Vivo Anticancer Drug Screen. Data for tumor model Human Lung LX-1 Xenograft (intrarenal inoculation) in NU/NU BALB/C (nude) mice. The note with it: endpoint: mean tumor weight change, higher = larger tumour. On the procedure:
The antitumor activity of compounds was measured in mice bearing transplantable tumors. Survival or tumor size were measured and the results are expressed as the measurement made in the treated group (T) divided by the measurement made in the vehicle treated control group (C). The tumor model used in this assay is Human Lung LX-1 Xenograft (intrarenal inoculation) in NU/NU BALB/C (nude) mice

Setting [1] is: dose: 75.0 mg/kg/injection, schedule: Q04DX003 (sc), vehicle: saline with Tween-80.
Where [2] appears, read: dose: 150.0 mg/kg/injection, schedule: Q04DX003 (sc), vehicle: saline with Tween-80.
Where [3] appears, read: dose: 300.0 mg/kg/injection, schedule: Q04DX003 (sc), vehicle: saline with Tween-80.
The mark [4] stands for this setting: dose: 600.0 mg/kg/injection, schedule: Q04DX003 (sc), vehicle: saline with Tween-80.
[5] abbreviates: dose: 1200.0 mg/kg/injection, schedule: Q04DX003 (sc), vehicle: saline with Tween-80.
[6] abbreviates: dose: 2400.0 mg/kg/injection, schedule: Q04DX003 (sc), vehicle: saline with Tween-80.

Where “and” joins values, the source holds several entries; their conditions need not be identical. Equal entries are not always repeated. Inconclusive results are not listed.

As to `CS(C)=O`, the T/C (dose: 750.0 mg/kg/injection, schedule: Q01DX010 (sc), vehicle: saline) was 88 % of control and the T/C (dose: 6000.0 mg/kg/injection, schedule: Q01DX010 (sc), vehicle: saline) is 67 % of control.
With `CC(C)CCC(=O)c1ccoc1`, the T/C was 123 % of control (dose: 0.75 mg/kg/injection, schedule: Q01DX010 (ip), vehicle: saline with Tween-80); 71 % of control (dose: 3.0 mg/kg/injection, schedule: Q01DX010 (ip), vehicle: saline with Tween-80); 73 % of control (dose: 6.0 mg/kg/injection, schedule: Q01DX010 (ip), vehicle: saline with Tween-80).
With `COc1ccc(N=N/N=c2\sc3cc(OC)ccc3n2C)cc1`, the T/C runs as follows: (dose: 30.0 mg/kg/injection, schedule: Q04DX003 (ip), vehicle: saline with Tween-80) 117 % of control; (dose: 60.0 mg/kg/injection, schedule: Q04DX003 (ip), vehicle: saline with Tween-80) 94 % of control; (dose: 75.0 mg/kg/injection, schedule: Q04DX003 (ip), vehicle: saline with Tween-80) 99 % of control; (dose: 120.0 mg/kg/injection, schedule: Q04DX003 (ip), vehicle: saline with Tween-80) 55 % of control; (dose: 150.0 mg/kg/injection, schedule: Q04DX003 (ip), vehicle: saline with Tween-80) 80 % of control; (dose: 240.0 mg/kg/injection, schedule: Q04DX003 (ip), vehicle: saline with Tween-80) 67 % of control. Besides, the T/C (dose: 300.0 mg/kg/injection, schedule: Q04DX003 (ip), vehicle: saline with Tween-80) is 50 % of control.
As to `FC(F)(F)c1nc2nc(Cl)c(Cl)nc2[nH]1`, the T/C is, setting by setting: under setting [1], 116 % of control; under setting [2], 74 % of control; under setting [3], 68 % of control.
Take `N#CCCSC(=S)C1CCCC1=N` (configuration not stated): the T/C was 84 % of control under setting [3], 79 % of control under setting [4], 102 % of control under setting [5] and 91 % of control under setting [6].
Turning to `O=C(O)[C@H](Cc1ccccc1)N1C(=O)c2ccccc2C1=O`, the T/C reads like this: (dose: 150.0 mg/kg/injection, schedule: Q04DX003 (ip), vehicle: DMSO) 98 % of control; (dose: 300.0 mg/kg/injection, schedule: Q04DX003 (ip), vehicle: DMSO) 58 % of control; (dose: 600.0 mg/kg/injection, schedule: Q04DX003 (ip), vehicle: DMSO) 53 % of control.
As for `OC1(CSc2ccccc2)CCCCC1`, the T/C is, setting by setting: (dose: 200.0 mg/kg/injection, schedule: Q04DX003 (sc), vehicle: saline with Tween-80) 75 % of control; (dose: 400.0 mg/kg/injection, schedule: Q04DX003 (sc), vehicle: saline with Tween-80) 85 % of control; (dose: 800.0 mg/kg/injection, schedule: Q04DX003 (sc), vehicle: saline with Tween-80) 82 % of control; (dose: 1600.0 mg/kg/injection, schedule: Q04DX003 (sc), vehicle: saline with Tween-80) 90 % of control.
For the compound `O=S(=O)(N=N/C=C1\C=CC=CN1O)c1cccs1`, the T/C reads like this: (dose: 37.5 mg/kg/injection, schedule: Q04DX003 (sc), vehicle: saline with Tween-80) 121 % of control; under setting [1], 82 % of control; under setting [2], 103 % of control.
Regarding `CC1=C2CC(C)(C)/C=C\C(=O)/C(C)=C\C3=C[C@H](C)C[C@]3(O2)C1=O`, the T/C reads like this: (dose: 6.0 mg/kg/injection, schedule: Q01DX010 (sc), vehicle: Klucel (hydroxypropylcellulose) (HPC)) 81 % of control; (dose: 12.0 mg/kg/injection, schedule: Q01DX010 (sc), vehicle: Klucel (hydroxypropylcellulose) (HPC)) 168 % of control; (dose: 24.0 mg/kg/injection, schedule: Q01DX010 (sc), vehicle: Klucel (hydroxypropylcellulose) (HPC)) 236 % of control; (dose: 50.0 mg/kg/injection, schedule: Q01DX010 (sc), vehicle: Klucel (hydroxypropylcellulose) (HPC)) 33 % of control.
With `Nc1ncn(C2OC(CO)C(O)C2O)c(=O)n1` (configuration not stated), the T/C runs as follows: (dose: 5.0 mg/kg/injection, schedule: Q04DX003 (sc), vehicle: saline) 47 % of control; (dose: 10.0 mg/kg/injection, schedule: Q04DX003 (sc), vehicle: saline) 39 % of control; (dose: 100.0 mg/kg/injection, schedule: Q04DX003 (sc), vehicle: saline) 34 % of control; (dose: 200.0 mg/kg/injection, schedule: Q04DX003 (sc), vehicle: saline) 18 % of control and 28 % of control; (dose: 400.0 mg/kg/injection, schedule: Q04DX003 (sc), vehicle: saline) 15 % of control and 32 % of control; (dose: 1600.0 mg/kg/injection, schedule: Q04DX003 (sc), vehicle: saline) -72 % of control.
For the compound `CC1=C/C(O)CC(=O)Cc2nc(co2)C(=O)N2CCC=C2C(=O)OC(C(C)C)C(C)/C=C\C(=O)NC/C=C\1` (configuration not stated), the T/C was 102 % of control (dose: 300.0 mg/kg/injection, schedule: Q04DX003 (sc), vehicle: Klucel (hydroxypropylcellulose) (HPC)); 90 % of control (dose: 600.0 mg/kg/injection, schedule: Q04DX003 (sc), vehicle: Klucel (hydroxypropylcellulose) (HPC)); 69 % of control (dose: 1200.0 mg/kg/injection, schedule: Q04DX003 (sc), vehicle: Klucel (hydroxypropylcellulose) (HPC)); 82 % of control (dose: 2400.0 mg/kg/injection, schedule: Q04DX003 (sc), vehicle: Klucel (hydroxypropylcellulose) (HPC)).
On to `CCCCCCCCCCC(OC(C)=O)C1CCC(C2CCC(C(O)CCCCCCCCCCCCC3C=C(C)OC3=O)O2)O1` (configuration not stated), for which the T/C was 93 % of control (dose: 5.0 mg/kg/injection, schedule: Q04DX003 (sc), vehicle: water); 114 % of control (dose: 10.0 mg/kg/injection, schedule: Q04DX003 (sc), vehicle: water); 108 % of control (dose: 20.0 mg/kg/injection, schedule: Q04DX003 (sc), vehicle: water); 110 % of control (dose: 40.0 mg/kg/injection, schedule: Q04DX003 (sc), vehicle: water).
`CN(C)c1ccc2c(NCCCCCCNc3ccnc4cc(N(C)C)ccc34)ccnc2c1`: the T/C (dose: 37.5 mg/kg/injection, schedule: Q04DX003 (sc), vehicle: distilled water + Tween-80 + alcohol) is 122 % of control; the T/C (dose: 75.0 mg/kg/injection, schedule: Q04DX003 (sc), vehicle: distilled water + Tween-80 + alcohol) is 80 % of control; the T/C (dose: 150.0 mg/kg/injection, schedule: Q04DX003 (sc), vehicle: distilled water + Tween-80 + alcohol) was 75 % of control.
For `Nc1cc2[nH]cnc2c(=O)[nH]1`, the T/C reads like this: (dose: 25.0 mg/kg/injection, schedule: Q01DX010 (sc), vehicle: saline) 75 % of control; (dose: 50.0 mg/kg/injection, schedule: Q01DX010 (sc), vehicle: saline) 89 % of control.
In the case of `CCOC1=Cc2c(oc3c(C(C)(C)C)cc(OCC)cc23)OC(C(C)(C)C)=C1`, the T/C was 92 % of control under setting [2], 101 % of control under setting [3] and 102 % of control under setting [4].
On to `N=c1c(C(=O)OCc2ccccc2)ncc(CCl)n1O`, for which the T/C by setting is: under setting [3], 87 % of control; under setting [4], 83 % of control; under setting [5], 91 % of control; under setting [6], 81 % of control.
As to `CC(=O)OC1C(O)C(C)OC(OC2C(OC(=O)C3CCC4C(C3)OC3(CC(OC(=O)/C=C/c5ccccc5)C(C)CO3)C43CO3)OC(C)C(O)C2OC(C)=O)C1O` (configuration not stated), the T/C (dose: 37.5 mg/kg/injection, schedule: Q04DX003 (sc), vehicle: distilled water + Tween-80) is 121 % of control and the T/C (dose: 75.0 mg/kg/injection, schedule: Q04DX003 (sc), vehicle: distilled water + Tween-80) was 63 % of control.
Regarding `CN1C(=O)C(=Cc2ccc(O)cc2)C(=O)N(C)C1=O`, the T/C is 114 % of control under setting [3], 110 % of control under setting [4], 87 % of control under setting [5] and 68 % of control under setting [6].
Regarding `O=[N+]([O-])O.O=[N+]([O-])O.[NH-]C1CCCCC1[NH-].[Pt+2]` (configuration not stated), the T/C runs as follows: (dose: 0.5 mg/kg/injection, schedule: Q01DX010 (sc), vehicle: dextrose) 76 % of control; (dose: 1.0 mg/kg/injection, schedule: Q01DX010 (sc), vehicle: dextrose) 80 % of control.
